The subject of data set [1] is MIA PaCa-2 cells. In words: Cellular imaging (CLSM) of FITC-labelled molecules. The format is cell-based. The following applies: FITC-labelled molecules, MIA PaCa-2 cells, 1 h incubation, CLSM. On the procedure: To further confirm this hypothesis, the M1 and M2 were equally labeled by FITC for cell imaging (Fig. 5b). To simulate the dynamic physiological condition, the cell culture medium was replaced every 15 min. After 1 h of incubation with M1 and M2 at the same molecule molar concentration, there occurred significant differences between the two molecules (Fig. 5c). […] The huge difference can be explained by the fact that the secondary assembly rate broke the balance between the targeted ligand and receptor, and thus tended to a stable assembly interaction. The retention efficiency depended on the assembly rate constant Ka. Meanwhile, the rapid dynamic assembly of BIVA probe in situ around the cell membrane, and contributed to the efficient formation and retention of nanofibers on the cell profile. When the incubation time was delayed up to 2 h, some components could be endocytosed into the cells, but most of them were found on the membranes (Supplementary Fig. 18). […] Then, the isolated cells were collected and lysed, the extracted cell membrane fragments were stained with ThT. […] In order to verify the influence of the addition of the targeting module of the probe molecules, we explored the imaging of R-M1 and M4 on cells.
(§1) Fig. 5 The BIVA effect with enhanced targeting to pancreatic tumor cell for boundaries imaging. a Illustration of BIVA effect: active targeting and assembly/aggregate induced retention (AIR) effect. b Chemical structure of FITC labeling. c 2D and 3D confocal images of M2 with active targeting property and M1 with BIVA effect on MIA PaCa-2 cells after incubation for 1 h. d The distribution of M1 on MIA PaCa-2 cell. e ThT staining of the lysed cell membrane of MIA PaCa-2. f, Illustration of migration inhibition after treated by BIVA probe. g The image of the migrated cells after treatment of PBS (blank), M2, M4, and M1. Scale bar: 100 μm. h The pie diagram of quantitative statistical calculation of the migrated cells (blue) in different groups. The blank control was set as 100% migrated cells.
MIA PaCa-2 cells were digested with trypsin, counted with cell counting plate, diluted to 1 × 10^4 with DMEM medium, and 1 mL to 1 cm diameter confocal microscope dish was taken. The cells were incubated in […] atmosphere for 24 h. The medium containing M1 and M2 (50 μM) was replaced and incubated with the cells for 2 h. The cells were washed with PBS for 3 times. CLSM (Zeiss 710) was used to image cells under 40 × objective, excitation = 488 nm, and emission >520 nm.
Supplementary Fig. 19 ∣ CLSM images of Miapaca-2 cells treated with different molecules or M1 under different conditions. […]

Data set [2] relates to MIA PaCa-2 cells. In words: Transwell migration assay. The format is cell-based. The following applies: MIA PaCa-2, 150 μM, 24 h; blank control = 1. On the procedure: as §1
In order to further understand the contribution of the active targeting and AIR effect during locating of the cells, the cell transwell experiment was used to quantitively evaluate interference of the cell migration based on M1, M2, and M4 (Fig. 5f). As expected, untreated cells were easy to migrate to the lower chamber, while the cells treated with active targeting molecule M2 and assembled molecule M4, the migration of cell were reduced. Under the same molar concentration, the M1 treatment group had the most inference on cell migration (Fig. 5g). […] Based on those results, we speculate M1 can be more enriched in the tumor site and form fibers through assembly to inhibit tumor cell migration compared to M2 and M4 which have no ability to target and adhere on the cell membrane.
Transwell migration assay occurred in chemotaxis chambers containing 24 wells. […] Bottom chambers contained DMEM medium containing 10% FBS. After 24 h of treatment with M1, M2, and M4 (150 μM), we fixed cells using 4% paraformaldehyde and stained with 0.25% crystal violet solution. The stained cells were counted using a microscope.
Supplementary Fig. 20∣ The quantitative results of the migrated cells after treatment of PBS (blank), M2, […] and
M1 (Fig 5g). The mean of results of fiveparallel experiments is shown and data were expressed as mean ± SD (n=5).
pM1 = 5.85E-06, pM2 = 5.94E-05, pM4 = 3.16 E-04, Statisticalanalysis: one-way ANOVA followed by post hoc Tukey’s
(1 picture or pasted object on this page, not shown here)

In data set [3] the test system is Recombinant Human Fibroblast Activation Protein-α (FAP-α). In words: FAP-α in buffer: 50 mM Tris, 1 M NaCl, 1 mg/mL, BSA, pH 7.5. Particulars: up to 12 h.

Consider “mPEG-GPAKLVFFGC(IR783)GDTG [M4, the non-targeting molecule]”, for which the “fluorescence signal on the cell membrane” value in the data set with MIA PaCa-2 cells [1] is “only a small amount of fluorescence signal”. For the same substance, in the data set on MIA PaCa-2 cells [2], the “emigrate (migrated cells relative to blank)” value stood at 0.5282.
For mPEG-AGGKLVFFGCGRGD, the not cleaved result in data set [3] is given as “no change of the retention peak”.
As for mPEG-GPAKLVFFGCGRGD, the cleaved bond result in data set [3] was “Pro-Ala”.

Values taken from article PMC8776730 (Nature Communications, 2022).
